Where two headings read alike, the source gives them in different places. Starred links: 1 amine or outer side, 2 acyl side, 3 side chain; linkers in the order of their positions; H or OH if unused. Positions of bridges follow the written chain, without caps; N, C: chain ends. Non-standard residues stand in square brackets, D forms with d. Residues, ends and D or L forms follow the SMILES beside them. *: point of attachment. εLys(α-Octadecanedioyl) = O=C(O)CCCCCCCCCCCCCCCCC(=O)N[C@@H](CCCCN*)C(=O)O; X18 = O=C(O)CCCCCCCCCCCCCCC(=O)N[C@@H](CC(=O)NCCCOCCOCCOCCCN*)C(=O)O; Trp(1-CH2COOH) = N[C@@H](Cc1cn(CC(=O)O)c2ccccc12)C(=O)O; X3 = NC(=O)[C@H](CC(=O)O)NC(=O)CCC(=O)NCCCOCCOCCOCCCN*; X9 = O=C(O)CCCCCCCCCCCCCCCCC(=O)N[C@@H](CCN*)C(=O)O; βAsp = O=C(O)[C@H](CC(=O)[*:2])N[*:1]; NH(CH2)12COOH = O=C(O)CCCCCCCCCCCCN*; PEG6 = NCCOCCOCCOCCOCCOCCOCCC(=O)O; Palmitoyl = CCCCCCCCCCCCCCCC(=O)*; Hyp = O=C(O)[C@@H]1C[C@@H](O)CN1; NHhexadecyl = CCCCCCCCCCCCCCCCN*; Myristoyl = CCCCCCCCCCCCCC(=O)*; dHyp = O=C(O)[C@H]1C[C@H](O)CN1; NMeNle = CCCC[C@H](NC)C(=O)O; Pip = O=C(O)[C@@H]1CCCCN1; dDab = NCC[C@@H](N)C(=O)O; NMeA = CN[C@@H](C)C(=O)O; Pra = C#CC[C@H](N)C(=O)O; Aun = NCCCCCCCCCCC(=O)O; Dab = NCC[C@H](N)C(=O)O; Dap = NC[C@H](N)C(=O)O; PEG2 = NCCOCCOCCC(=O)O
Molecular target: T1, PD-L1 (Homo sapiens, UniProt Q9NZQ7)
T1 construct: hPDL1(19-239)-TVMV-His; made in house; host or cells: HEK293T
Assay: PD-1/PD-L1 Homogenous Time-Resolved Fluorescence (HTRF) binding assay (PD-1-Ig/PD-L1-His)
How it was run: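 HTRF competition in dPBS with 0.1% BSA and 0.05% Tween-20: 20 nM PD-1-Ig added after 15 min compound pre-incubation with 10 nM PD-L1-His, then another 15 min. Signal (665/620 nm) after 30 min with APC anti-His (20 nM) and Eu anti-Ig (1 nM).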

[1] = inhibition of PD-1-Ig binding to PD-L1-TVMV-His, value given as range class, read-out: HTRF IC50

T1 sequence (Q9NZQ7 with tags, fused parts or gaps): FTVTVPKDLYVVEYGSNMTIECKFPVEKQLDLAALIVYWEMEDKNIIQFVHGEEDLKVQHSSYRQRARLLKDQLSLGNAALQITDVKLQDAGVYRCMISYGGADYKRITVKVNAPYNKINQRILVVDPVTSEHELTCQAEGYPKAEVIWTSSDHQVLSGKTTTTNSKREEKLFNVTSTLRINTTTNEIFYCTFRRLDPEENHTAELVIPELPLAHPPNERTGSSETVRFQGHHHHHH

| Structure (SMILES) | IC50 [1] [nM] | also measured |
| --- | --- | --- |
| CCCC[C@H]1C(=O)N(C)[C@@H](CCCC)C(=O)N[C@@H](CCC(=O)O)C(=O)N[C@H](C(=O)NCC(=O)N[C@@H](Cc2cn(CC[C@H](NC(=O)CCCCCCCCCCCCCCC(=O)O)C(=O)O)nn2)C(=O)N[C@@H](CC(=O)O)C(N)=O)CSCC(=O)N[C@@H](Cc2ccc(O)cc2)C(=O)N(C)[C@@H](C)C(=O)N[C@@H](CC(=O)O)C(=O)N2CCC[C@H]2C(=O)N[C@@H](Cc2c[nH]cn2)C(=O)N[C@@H](CCCCN)C(=O)N2C[C@H](O)C[C@H]2C(=O)N[C@@H](Cc2c[nH]c3ccccc23)C(=O)N[C@@H](CCCCN)C(=O)N[C@@H](Cc2cn(CC(=O)O)c3ccccc23)C(=O)N1C [Example 14071] | 10 to 99 | – |
| CCCC[C@H]1C(=O)N(C)[C@@H](CCCC)C(=O)N[C@@H](CC(C)C)C(=O)N[C@H](C(=O)NCC(=O)N[C@@H](CC(=O)NCCCC[C@H](NC(=O)CCCCCCCCCCCCCCCCC(=O)O)C(=O)O)C(=O)O)CSCC(=O)N[C@@H](Cc2ccc(O)cc2)C(=O)N(C)[C@@H](C)C(=O)N[C@@H](CC(N)=O)C(=O)N2CCC[C@H]2C(=O)N[C@@H](CN)C(=O)N[C@@H](CC(C)C)C(=O)N2C[C@H](O)C[C@H]2C(=O)N[C@@H](Cc2c[nH]c3ccccc23)C(=O)N[C@@H](CCN)C(=O)N[C@@H](Cc2cn(CC(=O)O)c3ccccc23)C(=O)N1C [Example 11176] ({CH2CO}-Y[NMeA]NP[Dap]L[Hyp]W[Dab][Trp(1-CH2COOH)][NMeNle][NMeNle]LCGD(εLys(α-Octadecanedioyl))-OH; thioether N-14) | 10 to 99 | – |
| CCCC[C@H]1C(=O)N(C)[C@@H](CCCC)C(=O)N[C@@H](CC(C)C)C(=O)N[C@H](C(=O)NCC(=O)NCC(=O)NCC(=O)NCCCCCCCCCCC(=O)O)CSCC(=O)N[C@@H](Cc2ccc(O)cc2)C(=O)N(C)[C@@H](C)C(=O)N[C@@H](CC(=O)O)C(=O)N2CCC[C@H]2C(=O)N[C@@H](Cc2cnc[nH]2)C(=O)N[C@@H](CCC(=O)O)C(=O)N2C[C@H](O)C[C@H]2C(=O)N[C@@H](Cc2c[nH]c3ccccc23)C(=O)N[C@@H](CCN)C(=O)N[C@@H](Cc2cn(CC(=O)O)c3ccccc23)C(=O)N1C [Example 11098] ({CH2CO}-Y[NMeA]DPHE[Hyp]W[Dab][Trp(1-CH2COOH)][NMeNle][NMeNle]LCGGG[Aun]-OH; thioether N-14) | 10 to 99 | – |
| CCCCCCCCCCCCCCCCNC(=O)CNC(=O)CNC(=O)[C@@H]1CSCC(=O)N[C@@H](Cc2ccc(O)cc2)C(=O)N(C)[C@@H](C)C(=O)N[C@@H](CC(N)=O)C(=O)N2CCC[C@H]2C(=O)N[C@@H](CCN)C(=O)N[C@@H](CC(C)C)C(=O)N2C[C@H](O)C[C@H]2C(=O)N[C@@H](Cc2c[nH]c3ccccc23)C(=O)N[C@@H](CO)C(=O)N[C@@H](Cc2c[nH]c3ccccc23)C(=O)N(C)[C@@H](CCCC)C(=O)N(C)[C@@H](CCCC)C(=O)N[C@@H](CCCNC(=N)N)C(=O)N1 [Example 11104] ({CH2CO}-Y[NMeA]NP[Dab]L[Hyp]WSW[NMeNle][NMeNle]RCGG-NHhexadecyl; thioether N-14) | 100 to 1600 | – |
| CCCC[C@H]1C(=O)N(C)[C@@H](CCCC)C(=O)N[C@@H](CC(C)C)C(=O)N[C@H](C(=O)NCC(=O)NCC(=O)NCC(=O)NCCCCCCCCCCCCC(=O)O)CSCC(=O)N[C@@H](Cc2ccc(O)cc2)C(=O)N(C)[C@@H](C)C(=O)N[C@@H](CC(=O)O)C(=O)N2CCC[C@H]2C(=O)N[C@@H](Cc2cnc[nH]2)C(=O)N[C@@H](CCCCN)C(=O)N2C[C@H](O)C[C@H]2C(=O)N[C@@H](Cc2c[nH]c3ccccc23)C(=O)N[C@@H](CCCCN)C(=O)N[C@@H](Cc2cn(CC(=O)O)c3ccccc23)C(=O)N1C [Example 11216] ({CH2CO}-Y[NMeA]DPHK[Hyp]WK[Trp(1-CH2COOH)][NMeNle][NMeNle]LCGGG-{NH(CH2)12COOH}; thioether N-14) | 10 to 99 | – |
| CCCC[C@H]1C(=O)N(C)[C@@H](CCCC)C(=O)N[C@@H](CC(C)C)C(=O)N[C@H](C(=O)NCC(=O)N[C@@H](CC(=O)NCCOCCOCCC(=O)NCC[C@H](NC(=O)CCCCCCCCCCCCCCCCC(=O)O)C(=O)O)C(=O)O)CSCC(=O)N[C@@H](Cc2ccc(O)cc2)C(=O)N2CCCC[C@H]2C(=O)N[C@@H](CC(N)=O)C(=O)N2CCC[C@H]2C(=O)N[C@@H](CN)C(=O)N[C@@H](CC(C)C)C(=O)N2C[C@H](O)C[C@H]2C(=O)N[C@@H](Cc2c[nH]c3ccccc23)C(=O)N[C@@H](CCN)C(=O)N[C@@H](Cc2cn(CC(=O)O)c3ccccc23)C(=O)N1C [Example 13163] ({CH2CO}-Y[Pip]NP[Dap]L[Hyp]W[Dab][Trp(1-CH2COOH)][NMeNle][NMeNle]LCG[βAsp][PEG2]-X9; thioether N-14) | 0.3 to 9.9 | – |
| CCCC[C@H]1C(=O)N(C)[C@@H](CCCC)C(=O)N[C@@H](CCC(=O)O)C(=O)N[C@H](C(=O)NCC(=O)N[C@@H](Cc2cn(CCOCCOCCOCCOCCOCCOCCOCCOC(=O)CCC(=O)Oc3c(C)c(C)c4c(c3C)CC[C@@](C)(CCC[C@H](C)CCC[C@H](C)CCCC(C)C)O4)nn2)C(=O)NCC(N)=O)CSCC(=O)N[C@@H](Cc2ccc(O)cc2)C(=O)N(C)[C@@H](C)C(=O)N[C@@H](CC(=O)O)C(=O)N2CCC[C@H]2C(=O)N[C@@H](Cc2c[nH]cn2)C(=O)N[C@@H](CCCCN)C(=O)N2C[C@H](O)C[C@H]2C(=O)N[C@@H](Cc2c[nH]c3ccccc23)C(=O)N[C@@H](CCCCN)C(=O)N[C@@H](Cc2c[nH]c3ccccc23)C(=O)N1C [Example 14052] | – | IC50: 10 to 99 nM |
| CCCC[C@H]1C(=O)N(C)[C@@H](CCCC)C(=O)N[C@@H](CC(C)C)C(=O)N[C@@H](C(=O)NCC(=O)N[C@@H](CC(=O)O)C(=O)N[C@@H](CCC(=O)NCCCOCCOCCOCCCNC(=O)C[C@H](NC(=O)CCCCCCCCCCCCCCC(=O)O)C(=O)O)C(=O)O)CSCC(=O)N[C@@H](Cc2ccc(O)cc2)C(=O)N(C)[C@@H](C)C(=O)N[C@@H](CC(N)=O)C(=O)N2CCC[C@@H]2C(=O)N[C@@H](CN)C(=O)N[C@@H](CC(C)C)C(=O)N2C[C@@H](O)C[C@@H]2C(=O)N[C@@H](Cc2c[nH]c3ccccc23)C(=O)N[C@H](CCN)C(=O)N[C@@H](Cc2cn(CC(=O)O)c3ccccc23)C(=O)N1C [Example 11241] ({CH2CO}-Y[NMeA]N[dP][Dap]L[dHyp]W[dDab][Trp(1-CH2COOH)][NMeNle][NMeNle]L[dC]GDE(X18)-OH; thioether N-14) | 10 to 99 | – |
| CCCC[C@H]1C(=O)N(C)[C@@H](CCCC)C(=O)N[C@@H](CC(C)C)C(=O)N[C@H](C(=O)NCC(=O)NCCCOCCOCCOCCCNC(=O)CCC(=O)N[C@@H](CC(=O)O)C(N)=O)CSCC(=O)N[C@@H](Cc2ccc(O)cc2)C(=O)N(C)[C@@H](C)C(=O)N[C@@H](CC(N)=O)C(=O)N2CCC[C@H]2C(=O)N[C@@H](Cc2cnc[nH]2)C(=O)N[C@@H](CCC(=O)O)C(=O)N2C[C@H](O)C[C@H]2C(=O)N[C@@H](Cc2c[nH]c3ccccc23)C(=O)N[C@@H](CCN)C(=O)N[C@@H](Cc2c[nH]c3ccccc23)C(=O)N1C [Example 11065] ({CH2CO}-Y[NMeA]NPHE[Hyp]W[Dab]W[NMeNle][NMeNle]LCG-X3; thioether N-14) | 10 to 99 | – |
| CCCC[C@H]1C(=O)N(C)[C@@H](CCCC)C(=O)N[C@@H](CCC(=O)O)C(=O)N[C@H](C(=O)NCC(=O)N[C@@H](Cc2cn(CC[C@H](NC(=O)CCCCCCCCCCCCCCC(=O)O)C(=O)O)nn2)C(N)=O)CSCC(=O)N[C@@H](Cc2ccc(O)cc2)C(=O)N(C)[C@@H](C)C(=O)N[C@@H](CC(=O)O)C(=O)N2CCC[C@H]2C(=O)N[C@@H](Cc2c[nH]cn2)C(=O)N[C@@H](CCCCN)C(=O)N2C[C@H](O)C[C@H]2C(=O)N[C@@H](Cc2c[nH]c3ccccc23)C(=O)N[C@@H](CCCCN)C(=O)N[C@@H](Cc2cn(CC(=O)O)c3ccccc23)C(=O)N1C [Example 14075] | 10 to 99 | – |
| CCCCCCCCCCCCCCCC(=O)NCCCC[C@H](NC(=O)[C@H](CC(=O)O)NC(=O)CNC(=O)CNC(=O)[C@@H]1CSCC(=O)N[C@@H](Cc2ccc(O)cc2)C(=O)N(C)[C@@H](C)C(=O)N[C@@H](CC(N)=O)C(=O)N2CCC[C@H]2C(=O)N[C@@H](CCN)C(=O)N[C@@H](CC(C)C)C(=O)N2C[C@H](O)C[C@H]2C(=O)N[C@@H](Cc2c[nH]c3ccccc23)C(=O)N[C@@H](CO)C(=O)N[C@@H](Cc2c[nH]c3ccccc23)C(=O)N(C)[C@@H](CCCC)C(=O)N(C)[C@@H](CCCC)C(=O)N[C@@H](CCCNC(=N)N)C(=O)N1)C(N)=O [Example 11026] ({CH2CO}-Y[NMeA]NP[Dab]L[Hyp]WSW[NMeNle][NMeNle]RCGGDK(Palmitoyl)-NH2; thioether N-14) | 100 to 1600 | – |
| CCCCCCCCCCCCCC(=O)NCCCC[C@H](NC(=O)[C@H](CC(=O)O)NC(=O)CCOCCOCCOCCOCCOCCOCCNC(=O)[C@H](CC(=O)O)NC(=O)CNC(=O)[C@@H]1CSCC(=O)N[C@@H](Cc2ccc(O)cc2)C(=O)N(C)[C@@H](C)C(=O)N[C@@H](CC(=O)O)C(=O)N2CCC[C@H]2C(=O)N[C@@H](Cc2cnc[nH]2)C(=O)N[C@@H](CC(C)C)C(=O)N2C[C@H](O)C[C@H]2C(=O)N[C@@H](Cc2c[nH]c3ccccc23)C(=O)N[C@@H](CO)C(=O)N[C@@H](Cc2c[nH]c3ccccc23)C(=O)N(C)[C@@H](CCCC)C(=O)N(C)[C@@H](CCCC)C(=O)N[C@@H](CCCNC(=N)N)C(=O)N1)C(N)=O [Example 11017] ({CH2CO}-Y[NMeA]DPHL[Hyp]WSW[NMeNle][NMeNle]RCGD[PEG6]DK(Myristoyl)-NH2; thioether N-14) | – | IC50 (inhibition of PD-1-Ig binding to PD-L1-TVMV-His, value given as number, read-out: HTRF IC50): 259 nM |
| C#CC[C@H](NC(=O)[C@@H]1CSCC(=O)N[C@@H](Cc2ccc(O)cc2)C(=O)N(C)[C@@H](C)C(=O)N[C@@H](CC(N)=O)C(=O)N2CCC[C@H]2C(=O)N[C@@H](CN)C(=O)N[C@@H](CC(C)C)C(=O)N2C[C@H](O)C[C@H]2C(=O)N[C@@H](Cc2c[nH]c3ccccc23)C(=O)N[C@@H](CCN)C(=O)N[C@@H](Cc2cn(CC(=O)O)c3ccccc23)C(=O)N(C)[C@@H](CCCC)C(=O)N(C)[C@@H](CCCC)C(=O)N[C@@H](CC(C)C)C(=O)N1)C(=O)O [INT130AF] ({CH2CO}-Y[NMeA]NP[Dap]L[Hyp]W[Dab][Trp(1-CH2COOH)][NMeNle][NMeNle]LC[Pra]-OH; thioether N-14) | 0.3 to 9.9 | – |
